Experimental data reported in the supplement of paper PMC4862054.
Values joined by “and” are separate entries in the source; they are usually repeats but may differ in a detail not shown here. Identical values can stand only once.

System: CAL-120
Assay: normalised viability (% of control), CellTiter-Blue; higher = more viable cells (about 100 = DMSO control)
Settings: 25 nM; incubation time: 72 h
How it was run: (§1)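 Breast cancer cell lines in 20 µl suspension were seeded onto 384-well plates pre-loaded with compound dissolved in 5 µl medium, then incubated 72 h. CellTiter-Blue reagent (2.5 µl) was added for 2 h at 37 °C and fluorescence read at 560/590 nm. Each plate was normalised to vehicle (100) and a positive kill control (0), with Z'-factor quality control. The value is normalised viability at one listed concentration of the series.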

Row | Compound | normalised viability
1 | CC(=O)Nc1cccc(-n2c(=O)n(C3CC3)c(=O)c3c(Nc4ccc(I)cc4F)n(C)c(=O)c(C)c32)c1 | 68.1%

Same assay, conditions: 99 nM; incubation time: 72 h

Row | Compound | normalised viability
2 | CCN(CC)CCCC(C)Nc1c2ccc(Cl)cc2nc2ccc(OC)cc12 (stereo unspecified) [Mepacrine] | 109%

Same assay, conditions: 100 nM; incubation time: 72 h

Row | Compound | normalised viability
3 | O=C(/C=C/c1cccnc1)NCCCCC1CCN(C(=O)c2ccccc2)CC1 [FK-866] | 24.7%
4 | CC[C@@H]1C(=O)N(C)c2cnc(Nc3ccc(C(=O)NC4CCN(C)CC4)cc3OC)nc2N1C1CCCC1 [BI 2536] | 28.6%

Same assay, conditions: 250 nM; incubation time: 72 h

Row | Compound | normalised viability
5 | CC(=O)Nc1cccc(-n2c(=O)n(C3CC3)c(=O)c3c(Nc4ccc(I)cc4F)n(C)c(=O)c(C)c32)c1 | 47.6%

Same assay, conditions: 990 nM; incubation time: 72 h

Row | Compound | normalised viability
6 | CCN(CC)CCCC(C)Nc1c2ccc(Cl)cc2nc2ccc(OC)cc12 (stereo unspecified) [Mepacrine] | 16.3%

Same assay, conditions: 1000 nM; incubation time: 72 h

Row | Compound | normalised viability
7 | Nc1ncn([C@H]2C[C@H](O)[C@@H](CO)O2)c(=O)n1 [Decitabine] | 85.4% and 89%
8 | O=C(/C=C/c1cccnc1)NCCCCC1CCN(C(=O)c2ccccc2)CC1 [FK-866] | 23.3%
9 | CC[C@@H]1C(=O)N(C)c2cnc(Nc3ccc(C(=O)NC4CCN(C)CC4)cc3OC)nc2N1C1CCCC1 [BI 2536] | 30.6%
10 | CCN(CC)CCCC(C)Nc1c2ccc(Cl)cc2nc2ccc(OC)cc12 (stereo unspecified) [Mepacrine] | 89.6%
11 | Nc1nc2[nH]cc(CCc3ccc(C(=O)N[C@@H](CCC(=O)O)C(=O)O)cc3)c2c(=O)[nH]1 [Pemetrexed] | 77.4%
12 | COc1cc([C@@H]2c3cc4c(cc3[C@@H](O[C@@H]3O[C@@H]5CO[C@@H](c6cccs6)O[C@H]5[C@H](O)[C@H]3O)[C@H]3COC(=O)[C@H]23)OCO4)cc(OC)c1O [Teniposide] | 55.9%
13 | COc1cc2nccc(Oc3ccc(NC(=O)Nc4cc(C)on4)c(Cl)c3)c2cc1OC [Tivozanib] | 98.7%
14 | O=C(Cc1ccc(-c2ccc(OCCN3CCOCC3)cc2)cn1)NCc1ccccc1 [KX2-391] | 21.3%
15 | Nc1ccccc1NC(=O)c1ccc(CNC(=O)OCc2cccnc2)cc1 [Entinostat] | 57.9%
16 | C=CC(=O)Nc1cc2c(Nc3ccc(F)c(Cl)c3)ncnc2cc1OCCCN1CCOCC1 [Canertinib] | 72.5%
17 | CC[C@H](Nc1ncnc2[nH]cnc12)c1nc2cccc(F)c2c(=O)n1-c1ccccc1 [CAL-101] | 89.6%

Same assay, conditions: 10000 nM; incubation time: 72 h

Row | Compound | normalised viability
18 | Nc1ncn([C@H]2C[C@H](O)[C@@H](CO)O2)c(=O)n1 [Decitabine] | 58.3% and 62.3%
19 | CCN(CC)CCCC(C)Nc1c2ccc(Cl)cc2nc2ccc(OC)cc12 (stereo unspecified) [Mepacrine] | 5.76%
20 | Nc1nc2[nH]cc(CCc3ccc(C(=O)N[C@@H](CCC(=O)O)C(=O)O)cc3)c2c(=O)[nH]1 [Pemetrexed] | 63.3%
21 | COc1cc([C@@H]2c3cc4c(cc3[C@@H](O[C@@H]3O[C@@H]5CO[C@@H](c6cccs6)O[C@H]5[C@H](O)[C@H]3O)[C@H]3COC(=O)[C@H]23)OCO4)cc(OC)c1O [Teniposide] | 10.3%
22 | COc1cc2nccc(Oc3ccc(NC(=O)Nc4cc(C)on4)c(Cl)c3)c2cc1OC [Tivozanib] | 47.8%
23 | O=C(Cc1ccc(-c2ccc(OCCN3CCOCC3)cc2)cn1)NCc1ccccc1 [KX2-391] | 21.3%
24 | Nc1ccccc1NC(=O)c1ccc(CNC(=O)OCc2cccnc2)cc1 [Entinostat] | 30.8%
25 | C=CC(=O)Nc1cc2c(Nc3ccc(F)c(Cl)c3)ncnc2cc1OCCCN1CCOCC1 [Canertinib] | 6.63%
26 | CC[C@H](Nc1ncnc2[nH]cnc12)c1nc2cccc(F)c2c(=O)n1-c1ccccc1 [CAL-101] | 77.8%

System: CAL-148
Assay: as above
Settings: 0.075 nM; incubation time: 72 h
How it was run: as §1

Row | Compound | normalised viability
27 | CC(=O)Nc1cccc(-n2c(=O)n(C3CC3)c(=O)c3c(Nc4ccc(I)cc4F)n(C)c(=O)c(C)c32)c1 | 107%

Same assay, conditions: 0.297 nM; incubation time: 72 h

Row | Compound | normalised viability
28 | CCN(CC)CCCC(C)Nc1c2ccc(Cl)cc2nc2ccc(OC)cc12 (stereo unspecified) [Mepacrine] | 118%

Same assay, conditions: 0.3 nM; incubation time: 72 h

Row | Compound | normalised viability
29 | O=C(/C=C/c1cccnc1)NCCCCC1CCN(C(=O)c2ccccc2)CC1 [FK-866] | 96.4%
30 | CC[C@@H]1C(=O)N(C)c2cnc(Nc3ccc(C(=O)NC4CCN(C)CC4)cc3OC)nc2N1C1CCCC1 [BI 2536] | 96.9%

Same assay, conditions: 0.75 nM; incubation time: 72 h

Row | Compound | normalised viability
31 | CC(=O)Nc1cccc(-n2c(=O)n(C3CC3)c(=O)c3c(Nc4ccc(I)cc4F)n(C)c(=O)c(C)c32)c1 | 96.2%

Same assay, conditions: 2.5 nM; incubation time: 72 h

Row | Compound | normalised viability
32 | CC(=O)Nc1cccc(-n2c(=O)n(C3CC3)c(=O)c3c(Nc4ccc(I)cc4F)n(C)c(=O)c(C)c32)c1 | 96.6%

Same assay, conditions: 2.97 nM; incubation time: 72 h

Row | Compound | normalised viability
33 | CCN(CC)CCCC(C)Nc1c2ccc(Cl)cc2nc2ccc(OC)cc12 (stereo unspecified) [Mepacrine] | 110%

Same assay, conditions: 3 nM; incubation time: 72 h

Row | Compound | normalised viability
34 | Nc1ncn([C@H]2C[C@H](O)[C@@H](CO)O2)c(=O)n1 [Decitabine] | 92.8% and 76.2%
35 | O=C(/C=C/c1cccnc1)NCCCCC1CCN(C(=O)c2ccccc2)CC1 [FK-866] | 94.5%
36 | CC[C@@H]1C(=O)N(C)c2cnc(Nc3ccc(C(=O)NC4CCN(C)CC4)cc3OC)nc2N1C1CCCC1 [BI 2536] | 92.9%
37 | CCN(CC)CCCC(C)Nc1c2ccc(Cl)cc2nc2ccc(OC)cc12 (stereo unspecified) [Mepacrine] | 98.7%
38 | Nc1nc2[nH]cc(CCc3ccc(C(=O)N[C@@H](CCC(=O)O)C(=O)O)cc3)c2c(=O)[nH]1 [Pemetrexed] | 95%
39 | COc1cc([C@@H]2c3cc4c(cc3[C@@H](O[C@@H]3O[C@@H]5CO[C@@H](c6cccs6)O[C@H]5[C@H](O)[C@H]3O)[C@H]3COC(=O)[C@H]23)OCO4)cc(OC)c1O [Teniposide] | 103%
40 | COc1cc2nccc(Oc3ccc(NC(=O)Nc4cc(C)on4)c(Cl)c3)c2cc1OC [Tivozanib] | 95%
41 | O=C(Cc1ccc(-c2ccc(OCCN3CCOCC3)cc2)cn1)NCc1ccccc1 [KX2-391] | 94.8%
42 | Nc1ccccc1NC(=O)c1ccc(CNC(=O)OCc2cccnc2)cc1 [Entinostat] | 85.4%
43 | C=CC(=O)Nc1cc2c(Nc3ccc(F)c(Cl)c3)ncnc2cc1OCCCN1CCOCC1 [Canertinib] | 81.8%
44 | CC[C@H](Nc1ncnc2[nH]cnc12)c1nc2cccc(F)c2c(=O)n1-c1ccccc1 [CAL-101] | 91.9%

Same assay, conditions: 9.9 nM; incubation time: 72 h

Row | Compound | normalised viability
45 | CCN(CC)CCCC(C)Nc1c2ccc(Cl)cc2nc2ccc(OC)cc12 (stereo unspecified) [Mepacrine] | 129%

Same assay, conditions: 10 nM; incubation time: 72 h

Row | Compound | normalised viability
46 | O=C(/C=C/c1cccnc1)NCCCCC1CCN(C(=O)c2ccccc2)CC1 [FK-866] | 91.4%
47 | CC[C@@H]1C(=O)N(C)c2cnc(Nc3ccc(C(=O)NC4CCN(C)CC4)cc3OC)nc2N1C1CCCC1 [BI 2536] | 26.2%

Same assay, conditions: 30 nM; incubation time: 72 h

Row | Compound | normalised viability
48 | Nc1ncn([C@H]2C[C@H](O)[C@@H](CO)O2)c(=O)n1 [Decitabine] | 91.4% and 85.8%
49 | CCN(CC)CCCC(C)Nc1c2ccc(Cl)cc2nc2ccc(OC)cc12 (stereo unspecified) [Mepacrine] | 106%
50 | Nc1nc2[nH]cc(CCc3ccc(C(=O)N[C@@H](CCC(=O)O)C(=O)O)cc3)c2c(=O)[nH]1 [Pemetrexed] | 105%
51 | COc1cc([C@@H]2c3cc4c(cc3[C@@H](O[C@@H]3O[C@@H]5CO[C@@H](c6cccs6)O[C@H]5[C@H](O)[C@H]3O)[C@H]3COC(=O)[C@H]23)OCO4)cc(OC)c1O [Teniposide] | 69.3%
